# Reference: the kinase profiling compilation of Christmann-Franck et al. (2016)
# Legend:
# Assay in all cases: KINOMEscan competition binding
# Conditions in all cases: compound 1.0 µM
# CSNK1A1L (human) = CSNK1A1L (human) (UniProt Q8N752)
# IRAK3 (human) = IRAK3 (human) (UniProt Q9Y616)
# [1] = tested on: FLT3 (human), P36888 [D835Y]
# IKBKE (human) = IKBKE (human) (UniProt Q14164)
# RPS6KA4 KD2 (human) = RPS6KA4 KD2 (human) (UniProt O75676)
# [2] = tested on: FLT3 (human), P36888 [D835H]
# TBK1 (human) = TBK1 (human) (UniProt Q9UHD2)
# [3] = tested on: KIT (human), P10721 [D816H]
# MAP3K13 (human) = MAP3K13 (human) (UniProt O43283)
# MKNK1 (human) = MKNK1 (human) (UniProt Q9BUB5)
# MYLK4 (human) = MYLK4 (human) (UniProt Q86YV6)
# [4] = molecular target: TYK2 JH2 pseudokinase (human) (UniProt P29597)
# [5] = tested on: FGFR3 (human), P22607 [G697C]
# CSNK1G2 (human) = CSNK1G2 (human) (UniProt P78368)
# LCK (human) = LCK (human) (UniProt P06239)
# Sequence of LCK (human) (P06239 whole entry, looked up): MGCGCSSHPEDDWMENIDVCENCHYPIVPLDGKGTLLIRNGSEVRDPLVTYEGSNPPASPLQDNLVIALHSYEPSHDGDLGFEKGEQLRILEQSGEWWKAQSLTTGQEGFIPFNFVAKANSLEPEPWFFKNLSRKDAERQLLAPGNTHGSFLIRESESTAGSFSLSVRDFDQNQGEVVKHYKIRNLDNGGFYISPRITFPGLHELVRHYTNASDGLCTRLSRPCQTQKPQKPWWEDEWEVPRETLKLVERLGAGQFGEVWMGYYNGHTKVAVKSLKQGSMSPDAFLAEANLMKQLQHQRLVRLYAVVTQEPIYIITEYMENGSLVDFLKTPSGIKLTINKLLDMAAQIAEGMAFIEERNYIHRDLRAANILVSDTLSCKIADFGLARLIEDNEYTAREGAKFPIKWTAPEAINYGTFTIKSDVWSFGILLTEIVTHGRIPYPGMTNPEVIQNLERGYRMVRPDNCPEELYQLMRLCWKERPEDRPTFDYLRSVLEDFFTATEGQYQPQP
# CSNK2A1 (human) = CSNK2A1 (human) (UniProt P68400)
# Sequence of CSNK2A1 (human) (P68400 whole entry, looked up): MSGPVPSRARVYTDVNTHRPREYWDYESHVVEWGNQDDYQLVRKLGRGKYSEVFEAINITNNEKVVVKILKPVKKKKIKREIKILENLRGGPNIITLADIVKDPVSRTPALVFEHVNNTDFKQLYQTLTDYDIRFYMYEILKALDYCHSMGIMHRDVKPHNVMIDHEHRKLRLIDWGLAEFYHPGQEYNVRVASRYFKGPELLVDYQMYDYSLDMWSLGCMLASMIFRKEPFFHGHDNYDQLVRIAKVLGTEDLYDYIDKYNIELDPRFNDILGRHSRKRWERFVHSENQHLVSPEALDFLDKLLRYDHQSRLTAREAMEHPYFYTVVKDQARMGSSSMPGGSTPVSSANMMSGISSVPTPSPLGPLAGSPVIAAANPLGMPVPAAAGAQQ
# DDR1 (human) = DDR1 (human) (UniProt Q08345)
# CAMK1G (human) = CAMK1G (human) (UniProt Q96NX5)
# NEK2 (human) = NEK2 (human) (UniProt P51955)
# Sequence of NEK2 (human) (P51955 whole entry, looked up): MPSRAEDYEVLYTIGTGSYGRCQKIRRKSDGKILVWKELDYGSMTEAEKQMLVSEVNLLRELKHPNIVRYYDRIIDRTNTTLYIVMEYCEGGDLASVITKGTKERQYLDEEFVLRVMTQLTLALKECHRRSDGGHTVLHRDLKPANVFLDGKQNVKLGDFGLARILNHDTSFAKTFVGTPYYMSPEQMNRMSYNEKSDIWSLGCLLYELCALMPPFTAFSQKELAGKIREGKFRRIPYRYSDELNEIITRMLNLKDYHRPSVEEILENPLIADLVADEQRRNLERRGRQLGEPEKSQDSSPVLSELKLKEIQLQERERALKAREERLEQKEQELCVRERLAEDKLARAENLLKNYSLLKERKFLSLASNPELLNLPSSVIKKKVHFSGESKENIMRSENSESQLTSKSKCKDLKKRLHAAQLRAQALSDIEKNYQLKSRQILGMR
# ERBB2 (human) = ERBB2 (human) (UniProt P04626)
# TNK2 (human) = TNK2 (human) (UniProt Q07912)
# ACVRL1 (human) = ACVRL1 (human) (UniProt P37023)
# Sequence of ACVRL1 (human) (P37023 whole entry, looked up): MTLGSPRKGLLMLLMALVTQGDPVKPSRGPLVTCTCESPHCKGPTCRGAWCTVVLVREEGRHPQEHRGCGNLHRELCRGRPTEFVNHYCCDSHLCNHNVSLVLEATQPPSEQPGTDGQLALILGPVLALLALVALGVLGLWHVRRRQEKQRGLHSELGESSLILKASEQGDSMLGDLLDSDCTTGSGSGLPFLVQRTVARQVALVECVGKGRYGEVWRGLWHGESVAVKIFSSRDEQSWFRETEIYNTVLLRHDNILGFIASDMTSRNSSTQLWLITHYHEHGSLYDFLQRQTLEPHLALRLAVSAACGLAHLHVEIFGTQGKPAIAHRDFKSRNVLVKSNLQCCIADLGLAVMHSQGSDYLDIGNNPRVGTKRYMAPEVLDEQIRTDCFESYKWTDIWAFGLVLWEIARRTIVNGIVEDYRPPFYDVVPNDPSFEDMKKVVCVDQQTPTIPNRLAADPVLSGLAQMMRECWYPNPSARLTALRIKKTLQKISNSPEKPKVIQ
# [6] = molecular target: JAK1 JH1 catalytic (human) (UniProt P23458)
# AAK1 (human) = AAK1 (human) (UniProt Q2M2I8)
# CSNK1E (human) = CSNK1E (human) (UniProt P49674)
# Sequence of CSNK1E (human) (P49674 whole entry, looked up): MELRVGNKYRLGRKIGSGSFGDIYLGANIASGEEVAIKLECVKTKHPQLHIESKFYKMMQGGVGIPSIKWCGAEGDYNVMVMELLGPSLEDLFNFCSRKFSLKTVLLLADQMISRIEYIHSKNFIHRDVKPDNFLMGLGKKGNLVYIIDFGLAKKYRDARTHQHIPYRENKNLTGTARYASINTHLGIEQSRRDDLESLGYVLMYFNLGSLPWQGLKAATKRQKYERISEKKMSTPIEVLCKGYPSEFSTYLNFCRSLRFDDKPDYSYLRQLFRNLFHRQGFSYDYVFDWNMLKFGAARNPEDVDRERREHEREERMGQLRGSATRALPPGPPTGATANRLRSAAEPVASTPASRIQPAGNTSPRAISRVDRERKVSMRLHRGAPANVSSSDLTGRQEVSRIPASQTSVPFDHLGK
# PKN2 (human) = PKN2 (human) (UniProt Q16513)
# CSF1R (human) = CSF1R (human) (UniProt P07333)
# LATS2 (human) = LATS2 (human) (UniProt Q9NRM7)
# SLK (human) = SLK (human) (UniProt Q9H2G2)
# Sequence of SLK (human) (Q9H2G2 whole entry, looked up): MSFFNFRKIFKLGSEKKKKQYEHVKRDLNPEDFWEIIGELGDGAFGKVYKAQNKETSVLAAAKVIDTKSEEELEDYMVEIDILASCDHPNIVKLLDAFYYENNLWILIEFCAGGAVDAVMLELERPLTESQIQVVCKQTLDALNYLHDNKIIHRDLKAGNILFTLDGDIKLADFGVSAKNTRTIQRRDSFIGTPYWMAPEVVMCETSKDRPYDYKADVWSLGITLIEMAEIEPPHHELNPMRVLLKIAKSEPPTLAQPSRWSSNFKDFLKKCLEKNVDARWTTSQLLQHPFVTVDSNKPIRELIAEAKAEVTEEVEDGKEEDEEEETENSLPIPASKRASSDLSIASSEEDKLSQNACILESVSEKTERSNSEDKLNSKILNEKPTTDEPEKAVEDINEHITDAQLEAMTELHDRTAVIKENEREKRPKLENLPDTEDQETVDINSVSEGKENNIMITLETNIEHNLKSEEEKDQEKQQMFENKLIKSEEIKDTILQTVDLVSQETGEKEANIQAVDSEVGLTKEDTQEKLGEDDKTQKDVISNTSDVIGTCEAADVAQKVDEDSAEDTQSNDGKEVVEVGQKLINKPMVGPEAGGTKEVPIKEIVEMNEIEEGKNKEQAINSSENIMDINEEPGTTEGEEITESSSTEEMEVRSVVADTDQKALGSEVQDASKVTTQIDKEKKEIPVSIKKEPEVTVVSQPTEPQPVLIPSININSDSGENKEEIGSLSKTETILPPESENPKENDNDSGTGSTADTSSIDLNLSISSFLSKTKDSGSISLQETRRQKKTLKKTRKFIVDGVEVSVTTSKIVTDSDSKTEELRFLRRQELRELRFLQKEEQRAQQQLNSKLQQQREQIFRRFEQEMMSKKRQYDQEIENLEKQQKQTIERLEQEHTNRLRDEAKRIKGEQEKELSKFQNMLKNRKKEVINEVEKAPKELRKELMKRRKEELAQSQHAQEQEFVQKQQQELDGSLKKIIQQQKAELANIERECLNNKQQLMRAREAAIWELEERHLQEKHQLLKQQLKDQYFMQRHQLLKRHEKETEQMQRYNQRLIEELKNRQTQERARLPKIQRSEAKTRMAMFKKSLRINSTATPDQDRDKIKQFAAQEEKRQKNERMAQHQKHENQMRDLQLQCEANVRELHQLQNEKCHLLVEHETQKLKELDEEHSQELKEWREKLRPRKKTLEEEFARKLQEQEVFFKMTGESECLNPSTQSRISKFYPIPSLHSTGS
# MAP3K1 (human) = MAP3K1 (human) (UniProt Q13233)
# BRSK2 (human) = BRSK2 (human) (UniProt Q8IWQ3)
# MAK (human) = MAK (human) (UniProt P20794)
# RPS6KA1 KD2 (human) = RPS6KA1 KD2 (human) (UniProt Q15418)
# MAP3K5 (human) = MAP3K5 (human) (UniProt Q99683)
# MAPK1 (human) = MAPK1 (human) (UniProt P28482)
# PKMYT1 (human) = PKMYT1 (human) (UniProt Q99640)
# [7] = tested on: KIT (human), P10721 [L576P]
# PRKCI (human) = PRKCI (human) (UniProt P41743)
# CSNK1D (human) = CSNK1D (human) (UniProt P48730)
# MAP4K5 (human) = MAP4K5 (human) (UniProt Q9Y4K4)
# BMP2K (human) = BMP2K (human) (UniProt Q9NSY1)
# NEK9 (human) = NEK9 (human) (UniProt Q8TD19)
# CDKL2 (human) = CDKL2 (human) (UniProt Q92772)
# Sequence of IKBKE (human) (Q14164 whole entry, looked up): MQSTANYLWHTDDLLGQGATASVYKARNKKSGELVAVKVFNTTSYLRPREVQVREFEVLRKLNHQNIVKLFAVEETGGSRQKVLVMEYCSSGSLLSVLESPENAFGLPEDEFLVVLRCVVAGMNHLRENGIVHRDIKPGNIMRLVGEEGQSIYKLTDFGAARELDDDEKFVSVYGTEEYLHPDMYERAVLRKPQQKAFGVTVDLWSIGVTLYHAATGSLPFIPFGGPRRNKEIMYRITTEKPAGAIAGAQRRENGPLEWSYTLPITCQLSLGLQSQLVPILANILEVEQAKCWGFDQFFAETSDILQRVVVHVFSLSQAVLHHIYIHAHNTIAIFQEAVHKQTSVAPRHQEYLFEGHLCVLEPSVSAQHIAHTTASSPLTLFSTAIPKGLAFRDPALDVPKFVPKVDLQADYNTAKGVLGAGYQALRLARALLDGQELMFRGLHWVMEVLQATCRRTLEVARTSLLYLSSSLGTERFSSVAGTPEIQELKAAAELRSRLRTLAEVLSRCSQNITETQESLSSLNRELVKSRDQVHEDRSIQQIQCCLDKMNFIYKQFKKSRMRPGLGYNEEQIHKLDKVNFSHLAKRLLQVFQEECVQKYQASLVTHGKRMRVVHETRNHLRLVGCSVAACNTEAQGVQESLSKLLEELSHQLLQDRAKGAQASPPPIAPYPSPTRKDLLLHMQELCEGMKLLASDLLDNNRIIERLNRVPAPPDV
# Sequence of RPS6KA4 KD2 (human) (O75676 whole entry, looked up): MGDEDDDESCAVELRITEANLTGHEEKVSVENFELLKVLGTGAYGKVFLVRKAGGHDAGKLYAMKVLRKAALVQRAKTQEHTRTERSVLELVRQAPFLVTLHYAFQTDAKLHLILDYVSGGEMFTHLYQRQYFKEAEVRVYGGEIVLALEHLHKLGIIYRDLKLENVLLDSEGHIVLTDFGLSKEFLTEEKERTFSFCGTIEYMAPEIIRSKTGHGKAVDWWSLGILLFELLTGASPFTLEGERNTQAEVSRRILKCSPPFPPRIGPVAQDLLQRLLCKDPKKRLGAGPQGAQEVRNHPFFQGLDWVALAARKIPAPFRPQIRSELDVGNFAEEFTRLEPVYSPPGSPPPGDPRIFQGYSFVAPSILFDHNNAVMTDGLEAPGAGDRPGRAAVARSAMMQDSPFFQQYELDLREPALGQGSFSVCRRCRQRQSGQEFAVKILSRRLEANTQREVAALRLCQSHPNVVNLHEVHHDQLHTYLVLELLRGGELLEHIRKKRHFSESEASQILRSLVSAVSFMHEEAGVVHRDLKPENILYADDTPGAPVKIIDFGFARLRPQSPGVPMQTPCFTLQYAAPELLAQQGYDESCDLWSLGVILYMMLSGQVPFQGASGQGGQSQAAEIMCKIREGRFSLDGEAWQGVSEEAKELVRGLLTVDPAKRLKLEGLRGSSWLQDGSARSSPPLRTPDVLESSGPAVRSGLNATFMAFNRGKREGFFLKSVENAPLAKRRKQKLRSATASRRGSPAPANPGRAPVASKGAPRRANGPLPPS
structure (smiles),measurement,setting,value
COCCNCCCn1c(C(=O)CF)c(-c2ccc(C)cc2)c2c(N)ncnc21,"kinase still bound, per cent of control",CSNK1A1L (human),100%
same,"kinase still bound, per cent of control",IRAK3 (human),86%
same,"kinase still bound, per cent of control",[1],100%
same,"kinase still bound, per cent of control",IKBKE (human),100%
same,"kinase still bound, per cent of control",RPS6KA4 KD2 (human),100%
same,"kinase still bound, per cent of control",[2],100%
same,"kinase still bound, per cent of control",TBK1 (human),100%
same,"kinase still bound, per cent of control",[3],97%
same,"kinase still bound, per cent of control",MAP3K13 (human),92%
same,"kinase still bound, per cent of control",MKNK1 (human),100%
same,"kinase still bound, per cent of control",MYLK4 (human),86%
same,"kinase still bound, per cent of control",[4],100%
same,"kinase still bound, per cent of control",[5],91%
same,"kinase still bound, per cent of control",CSNK1G2 (human),100%
same,"kinase still bound, per cent of control",LCK (human),65%
same,"kinase still bound, per cent of control",CSNK2A1 (human),100%
same,"kinase still bound, per cent of control",DDR1 (human),100%
same,"kinase still bound, per cent of control",CAMK1G (human),97%
same,"kinase still bound, per cent of control",NEK2 (human),98%
same,"kinase still bound, per cent of control",ERBB2 (human),100%
same,"kinase still bound, per cent of control",TNK2 (human),100%
same,"kinase still bound, per cent of control",ACVRL1 (human),100%
same,"kinase still bound, per cent of control",[6],100%
same,"kinase still bound, per cent of control",AAK1 (human),95%
same,"kinase still bound, per cent of control",CSNK1E (human),87%
same,"kinase still bound, per cent of control",PKN2 (human),94%
same,"kinase still bound, per cent of control",CSF1R (human),89%
same,"kinase still bound, per cent of control",LATS2 (human),100%
same,"kinase still bound, per cent of control",SLK (human),100%
same,"kinase still bound, per cent of control",MAP3K1 (human),100%
same,"kinase still bound, per cent of control",BRSK2 (human),100%
same,"kinase still bound, per cent of control",MAK (human),95%
same,"kinase still bound, per cent of control",RPS6KA1 KD2 (human),31%
same,"kinase still bound, per cent of control",MAP3K5 (human),100%
same,"kinase still bound, per cent of control",MAPK1 (human),100%
same,"kinase still bound, per cent of control",PKMYT1 (human),86%
same,"kinase still bound, per cent of control",[7],71%
same,"kinase still bound, per cent of control",PRKCI (human),75%
same,"kinase still bound, per cent of control",CSNK1D (human),82%
same,"kinase still bound, per cent of control",MAP4K5 (human),86%
same,"kinase still bound, per cent of control",BMP2K (human),94%
same,"kinase still bound, per cent of control",NEK9 (human),99%
same,"kinase still bound, per cent of control",CDKL2 (human),87%
